Literature values in patent publication US20250356984A1 (priority 2022, published 2025).

Conditions: in vivo

SMILES: CC(C)c1cccc(C(C)C)c1O [propofol]
- time until target blood concentration is achieved: under a minute
